The source of these data is doi:10.1101/2025.10.24.684310v1 (biorxiv, 2025).

The nature of data set [1]: in vitro. The following applies: PAMPA.
The nature of data set [2]: in vitro. As to conditions: PAMPA. This is another data set of the same source.
Data set [3] in a line: in vitro. As to conditions: human, liver microsomes.
Data set [4] in a line: in vitro. As to conditions: human, liver microsomes. The source holds these as a separate data set.
Data set [5] can be described thus: in vitro. The following applies: human, liver microsomes. This is another data set of the same source.
The target of another data set is hERG (Homo sapiens, UniProt Q12809, species not given). The data set is described as follows: hERG channel inhibition. It counts as cell-based.
Chain of hERG (Q12809 whole entry): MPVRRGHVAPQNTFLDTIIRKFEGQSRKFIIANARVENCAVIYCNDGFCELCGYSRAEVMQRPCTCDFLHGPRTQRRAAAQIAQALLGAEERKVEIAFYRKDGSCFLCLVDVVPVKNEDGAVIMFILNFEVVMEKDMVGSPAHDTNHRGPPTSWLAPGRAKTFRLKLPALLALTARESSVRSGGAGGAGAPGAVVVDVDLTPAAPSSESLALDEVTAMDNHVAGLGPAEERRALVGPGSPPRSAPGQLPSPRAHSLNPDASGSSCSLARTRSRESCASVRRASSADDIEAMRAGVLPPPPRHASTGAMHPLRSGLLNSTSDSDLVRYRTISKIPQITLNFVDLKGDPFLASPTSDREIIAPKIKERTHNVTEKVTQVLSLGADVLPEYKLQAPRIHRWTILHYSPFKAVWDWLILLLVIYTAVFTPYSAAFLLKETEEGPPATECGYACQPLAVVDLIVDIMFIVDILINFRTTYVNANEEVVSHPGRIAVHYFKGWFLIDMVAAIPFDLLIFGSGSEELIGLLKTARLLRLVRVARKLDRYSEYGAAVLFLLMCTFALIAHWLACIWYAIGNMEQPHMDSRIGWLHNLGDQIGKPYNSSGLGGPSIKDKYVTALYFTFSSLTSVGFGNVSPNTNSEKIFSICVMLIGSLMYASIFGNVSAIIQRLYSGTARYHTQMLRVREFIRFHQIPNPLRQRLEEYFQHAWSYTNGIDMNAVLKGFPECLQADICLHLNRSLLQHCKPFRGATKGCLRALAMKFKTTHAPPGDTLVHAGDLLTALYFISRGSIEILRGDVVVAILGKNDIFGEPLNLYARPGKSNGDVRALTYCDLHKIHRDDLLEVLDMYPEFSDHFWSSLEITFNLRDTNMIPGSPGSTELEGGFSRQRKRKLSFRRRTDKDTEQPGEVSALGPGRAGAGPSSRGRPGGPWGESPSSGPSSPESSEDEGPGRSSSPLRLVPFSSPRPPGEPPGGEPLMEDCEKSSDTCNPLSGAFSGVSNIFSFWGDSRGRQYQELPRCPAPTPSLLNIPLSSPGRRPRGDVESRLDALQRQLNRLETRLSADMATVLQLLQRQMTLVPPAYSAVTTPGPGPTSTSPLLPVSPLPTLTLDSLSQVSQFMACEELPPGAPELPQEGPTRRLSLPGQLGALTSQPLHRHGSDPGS
In the next data set the target is T1, CYP1A2 (Homo sapiens, UniProt P05177).
T1 sequence (P05177 1-516): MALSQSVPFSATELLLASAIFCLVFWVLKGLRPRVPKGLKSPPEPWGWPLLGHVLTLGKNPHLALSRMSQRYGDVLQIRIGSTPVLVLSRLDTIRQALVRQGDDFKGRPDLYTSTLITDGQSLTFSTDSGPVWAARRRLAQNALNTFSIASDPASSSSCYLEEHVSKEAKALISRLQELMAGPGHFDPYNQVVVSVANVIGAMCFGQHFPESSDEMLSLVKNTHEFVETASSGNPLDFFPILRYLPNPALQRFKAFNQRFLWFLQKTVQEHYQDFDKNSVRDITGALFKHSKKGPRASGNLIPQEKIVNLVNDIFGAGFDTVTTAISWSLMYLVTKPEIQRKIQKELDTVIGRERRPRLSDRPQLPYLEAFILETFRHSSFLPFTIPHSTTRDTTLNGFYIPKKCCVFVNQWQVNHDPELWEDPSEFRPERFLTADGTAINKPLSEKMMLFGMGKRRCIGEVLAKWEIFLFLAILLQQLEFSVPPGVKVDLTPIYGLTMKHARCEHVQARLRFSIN
Briefly: in vitro.

A further data set has as its target CYP2C9 (Homo sapiens, UniProt P11712). Briefly: in vitro.
The target in a further data set is CYP2C19 (Homo sapiens, UniProt P33261). Briefly: in vitro.
Chain of CYP2C19 (P33261 whole entry): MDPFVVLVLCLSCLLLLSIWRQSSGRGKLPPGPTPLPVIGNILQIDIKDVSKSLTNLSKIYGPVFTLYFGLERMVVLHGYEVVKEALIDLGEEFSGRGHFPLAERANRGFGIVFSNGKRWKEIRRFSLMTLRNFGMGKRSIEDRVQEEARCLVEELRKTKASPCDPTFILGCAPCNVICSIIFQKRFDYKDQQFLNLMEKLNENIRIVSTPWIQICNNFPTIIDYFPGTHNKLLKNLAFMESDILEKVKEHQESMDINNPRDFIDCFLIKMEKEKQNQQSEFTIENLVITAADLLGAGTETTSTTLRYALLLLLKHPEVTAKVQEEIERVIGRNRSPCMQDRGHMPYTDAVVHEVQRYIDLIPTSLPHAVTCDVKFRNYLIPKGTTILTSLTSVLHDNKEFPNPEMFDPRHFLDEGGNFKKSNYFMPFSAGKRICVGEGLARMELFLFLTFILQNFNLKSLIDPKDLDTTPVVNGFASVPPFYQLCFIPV
Another data set has as its target CYP2D6 (Homo sapiens, UniProt P10635). Briefly: in vitro.

Chain of CYP2C9 (P11712 whole entry): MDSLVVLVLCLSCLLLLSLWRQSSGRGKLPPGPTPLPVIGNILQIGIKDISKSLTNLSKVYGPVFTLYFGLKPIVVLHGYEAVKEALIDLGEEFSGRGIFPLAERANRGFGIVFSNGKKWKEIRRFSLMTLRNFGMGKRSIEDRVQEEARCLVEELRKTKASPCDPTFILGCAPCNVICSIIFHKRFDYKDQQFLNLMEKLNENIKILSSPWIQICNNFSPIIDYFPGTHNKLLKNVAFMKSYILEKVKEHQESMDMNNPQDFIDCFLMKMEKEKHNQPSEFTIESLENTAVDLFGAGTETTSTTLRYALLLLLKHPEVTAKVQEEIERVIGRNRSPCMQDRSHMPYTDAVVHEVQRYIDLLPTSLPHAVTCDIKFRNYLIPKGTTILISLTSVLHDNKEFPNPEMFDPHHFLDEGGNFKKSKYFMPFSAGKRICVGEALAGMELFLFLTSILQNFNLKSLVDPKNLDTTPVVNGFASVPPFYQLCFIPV
Chain of CYP2D6 (P10635 whole entry): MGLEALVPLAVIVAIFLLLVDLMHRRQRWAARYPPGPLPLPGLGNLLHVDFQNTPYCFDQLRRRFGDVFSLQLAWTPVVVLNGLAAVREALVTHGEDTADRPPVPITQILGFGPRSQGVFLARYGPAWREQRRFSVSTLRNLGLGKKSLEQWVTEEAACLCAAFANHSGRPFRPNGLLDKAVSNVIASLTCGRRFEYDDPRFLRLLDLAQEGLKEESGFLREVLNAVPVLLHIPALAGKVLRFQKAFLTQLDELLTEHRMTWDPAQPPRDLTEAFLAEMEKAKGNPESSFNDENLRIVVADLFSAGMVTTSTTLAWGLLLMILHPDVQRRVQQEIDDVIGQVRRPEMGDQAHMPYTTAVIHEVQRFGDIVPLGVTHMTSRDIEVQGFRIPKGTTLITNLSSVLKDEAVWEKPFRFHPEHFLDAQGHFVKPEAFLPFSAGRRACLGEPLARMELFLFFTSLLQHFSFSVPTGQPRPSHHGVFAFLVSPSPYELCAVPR

Molecule `CCOC(=O)C1=C(C)NC(=O)NC1c1cccc(O)c1` (stereo not shown) [U13] yielded a Papp in “in vitro [1]” of 0.003 ± 0.001 ×10⁻⁶ cm/s. The molecule `CC1=C(C(=O)Nc2ccc(Cl)cc2)C(c2ccc(C)cc2)NC(=O)N1` (stereo not shown) [CU4] returned a Papp in “in vitro [2]” of 5.3 ± 0.2 ×10⁻⁶ cm/s. As to `CCOC(=O)C1=C(C)NC(=O)NC1c1ccc(C(F)(F)F)cc1` (stereo not shown) [U6], the Papp in the data set “in vitro [1]” turned out to be 11.5 ± 0.4 ×10⁻⁶ cm/s. On to `CCOC(=O)C1=C(C)NC(=S)NC1c1ccc(C(F)(F)F)cc1` (stereo not shown) [T6], for which the apparent permeability coefficient (Papp) in “in vitro [1]” was above 30 ×10⁻⁶ cm/s. Turning to `CCOC(=O)C1=C(C)NC(=O)NC1c1ccc(Cl)c(Cl)c1` (stereo not shown) [U5], the Papp in the data set “in vitro [1]” stood at 15.8 ± 0.5 ×10⁻⁶ cm/s.

In the case of `CCOC(=O)C1=C(C)NC(=S)NC1c1ccc(Cl)c(Cl)c1` (stereo not shown) [T5], the apparent permeability coefficient (Papp) in the data set “in vitro [1]” is 16.2 ± 0.5 ×10⁻⁶ cm/s. As to `CC1=C(C(=O)Nc2ccc(Cl)cc2)C(c2ccc(C)cc2)NC(=S)N1` (stereo not shown) [CT4], the Papp in “in vitro [2]” was 4.6 ± 0.2 ×10⁻⁶ cm/s. In “in vitro [1]”, `COC(=O)C1=C(C)NC(=S)NC1c1cccc(OC)c1` (stereo not shown) [T14] had an apparent permeability (Papp) of 3.5 ± 0.6 ×10⁻⁶ cm/s. The molecule `CCOC(=O)C1=C(C)NC(=S)NC1c1ccccc1Cl` (stereo not shown) [T9, Ethyl 4-(2-chlorophenyl)-6-methyl-2-thioxo-1,2,3,4-tetrahydropyrimidine-5-carboxylate] had a fraction remaining at 1 h in the data set “in vitro [3]” of 82.4%. For the same molecule, in “in vitro [4]”, the half-life stood at 3.69 h. Moreover, in the data set “in vitro [5]”, the microsomal CLint is 3 µL/min/mg. For `COC(=O)C1=C(C)NC(=O)NC1c1ccccc1` (stereo not shown) [U15, Methyl 6-methyl-2-oxo-4-phenyl-1,2,3,4-tetrahydropyrimidine-5-carboxylate], the amount remaining at 1 h in the data set “in vitro [3]” was determined as 93%. In “in vitro [4]”, this molecule had a half-life of 10.7 h. Also, the intrinsic metabolic clearance (microsomal CLint) in “in vitro [5]” amounted to 1.2 µL/min/mg.

Take `CCOC(=O)C1=C(C)NC(=S)NC1c1ccc(OC)cc1` (stereo not shown) [T3]: the IC50 at hERG was above 10 µM. The Papp in the data set “in vitro [1]” turned out to be 8.1 ± 0.5 ×10⁻⁶ cm/s. As to `CCOC(=O)C1=C(C)NC(=O)NC1c1ccc(F)cc1` (stereo not shown) [U14, Ethyl 4-(4-fluorophenyl)-6-methyl-2-oxo-1,2,3,4-tetrahydropyrimidine-5-carboxylate], the share remaining at 1 h in “in vitro [3]” came to 74.1%. In the data set “in vitro [4]”, this molecule displayed a half-life of 2.47 h. Moreover, the microsomal CLint in “in vitro [5]” was 5.4 µL/min/mg. In the data set “in vitro [2]”, `CC1=C(C(=O)Nc2ccc(Cl)cc2)C(c2ccc(Cl)cc2)NC(=S)N1` (stereo not shown) [CT2] showed a Papp of 7.1 ± 0.1 ×10⁻⁶ cm/s. Molecule `CCOC(=O)C1=C(C)NC(=S)NC1c1ccc(F)cc1` (stereo not shown) [T13] registered an apparent permeability coefficient (Papp) in the data set “in vitro [1]” of 18.4 ± 1.6 ×10⁻⁶ cm/s. `CCOC(=O)C1=C(C)NC(=S)NC1c1ccc(C)cc1` (stereo not shown) [T4] registered a Papp in the data set “in vitro [1]” of 10.3 ± 0.3 ×10⁻⁶ cm/s.

Molecule `COc1ccc(C2NC(=O)NC(C)=C2C(=O)Nc2ccc(Cl)cc2)cc1` (stereo not shown) [CU3] registered an apparent permeability (Papp) in “in vitro [2]” of 5.9 ± 0.2 ×10⁻⁶ cm/s.

The molecule `COC(=O)C1=C(C)NC(=O)NC1c1cccc(Br)c1` (stereo not shown) [U12] registered a Papp in the data set “in vitro [1]” of 2 ± 0.2 ×10⁻⁶ cm/s. For the molecule `CC1=C(C(=O)Nc2ccc(Cl)cc2)C(c2ccc(Cl)cc2)NC(=O)N1` (stereo not shown) [CU2], the Papp in the data set “in vitro [2]” came out at 7.7 ± 0.2 ×10⁻⁶ cm/s. On the same count and under the same terms, with `CC1=C(C(=O)Nc2ccc(Cl)cc2)C(c2ccccc2)NC(=O)N1` (stereo not shown) [CU1] the figure was 9.5 ± 0.2 ×10⁻⁶ cm/s. Regarding `CCOC(=O)C1=C(C)NC(=S)NC1c1ccc(OC)cc1` (stereo not shown) [T3, Ethyl 4-(4-methoxyphenyl)-6-methyl-2-thioxo-1,2,3,4-tetrahydropyrimidine-5-carboxylate], the inhibition at 1 µM at CYP1A2 was -13.3 ± 2%; against CYP2C9, 3.7 ± 1.1%; against CYP2C19 it was 11.7 ± 4.5%; on CYP2D6, -3.2 ± 0.2%.

Regarding `CC1=C(C(=O)Nc2ccc(Cl)cc2)C(c2ccccc2)NC(=S)N1` (stereo not shown) [CT1], the Papp in the data set “in vitro [2]” was 3.6 ± 0.1 ×10⁻⁶ cm/s. Take `COc1ccc(C2NC(=S)NC(C)=C2C(=O)Nc2ccc(Cl)cc2)cc1` (stereo not shown) [CT3]: the Papp in the data set “in vitro [2]” stood at 3.4 ± 0.3 ×10⁻⁶ cm/s. With `CCOC(=O)C1=C(C)NC(=O)NC1c1ccc(Cl)cc1Cl` (stereo not shown) [U7], the apparent permeability coefficient (Papp) in the data set “in vitro [1]” was determined as 15.3 ± 1 ×10⁻⁶ cm/s.

`CCOC(=O)C1=C(C)NC(=S)NC1c1cccc(O)c1` (stereo not shown) [T12] returned an apparent permeability coefficient (Papp) in the data set “in vitro [1]” of 17.7 ± 0.9 ×10⁻⁶ cm/s. `CC1=C(C(=O)Nc2ccc(Cl)cc2)C(c2ccc(Cl)c(Cl)c2)NC(=S)N1` (stereo not shown) [CT5]: in the data set “in vitro [2]”, the Papp is 7.6 ± 1 ×10⁻⁶ cm/s. `CCOC(=O)C1=C(C)NC(=O)NC1c1ccc(F)cc1` (stereo not shown) [U14]: the apparent permeability coefficient (Papp) in the data set “in vitro [1]” is 6.2 ± 0.3 ×10⁻⁶ cm/s. In turn, `CC1=C(C(=O)Nc2ccc(Cl)cc2)C(c2ccc(Cl)c(Cl)c2)NC(=O)N1` (stereo not shown) [CU5] had a Papp in “in vitro [2]” of 13.6 ± 0.5 ×10⁻⁶ cm/s.

For the molecule `CCOC(=O)C1=C(C)NC(=S)NC1c1ccc(Cl)cc1` (stereo not shown) [T2], the IC50 against hERG is above 10 µM. In the data set “in vitro [3]”, the fraction remaining at 1 h came to 77.7%. The molecule also gave a half-life in “in vitro [4]” of 2.36 h. The same molecule registered a microsomal CLint in “in vitro [5]” of 7.8 µL/min/mg. The molecule further yielded a Papp in “in vitro [1]” of 12.2 ± 0.7 ×10⁻⁶ cm/s. Molecule `CCOC(=O)C1=C(C)NC(=S)NC1c1ccc(OCC)cc1` (stereo not shown) [T10] had a Papp in the data set “in vitro [1]” of 0.1 ×10⁻⁶ cm/s.
